# Biological target: 14-3-3 protein beta/alpha (Homo sapiens) (UniProt P31946)
# Experiment: 14-3-3 beta ligand binding via Tm shift – biophysical, DSF, SYPRO orange, recombinant human protein (AID 396)
# Settings: Recombinant YWHAB, DSF SYPRO orange thermal shift; at 10 µM; protein 2.3 µM; buffer 10 mM HEPES; pH 7.5; NaCl 150 mM; stronger effect = higher value
# 14-3-3 protein beta/alpha (Homo sapiens), sequence (P31946 whole entry, looked up): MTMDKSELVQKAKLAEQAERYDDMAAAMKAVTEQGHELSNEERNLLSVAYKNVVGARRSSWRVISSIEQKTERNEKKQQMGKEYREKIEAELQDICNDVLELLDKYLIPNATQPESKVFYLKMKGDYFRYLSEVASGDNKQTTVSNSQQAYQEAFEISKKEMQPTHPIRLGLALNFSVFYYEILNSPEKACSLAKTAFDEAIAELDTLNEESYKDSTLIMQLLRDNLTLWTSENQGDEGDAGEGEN
structure (smiles),measurement,value
O=c1c(O)c(-c2ccc(O)c(O)c2)oc2cc(O)cc(O)c12,Tm shift,3.13 Celsius
